In DBAASP one finds MIC data, which are given here for five compounds.

Test systems include Bacillus cereus ACM 446; Escherichia coli L361; Escherichia coli O9; Pseudomonas fluorescens; Aeromonas hydrophila; Bacillus cereus; Bacillus subtilis; Candida albicans; Cryptococcus neoformans; Escherichia coli; Pseudomonas aeruginosa; Shigella flexneri; Staphylococcus aureus; Vibrio alginolyticus; Vibrio parahaemolyticus; Enterobacter cloacae; Escherichia coli UTI89; Klebsiella pneumoniae; Vibrio cholerae; Enterococcus faecalis A4; Staphylococcus aureus MR.

Common to all, as to test: ≥ marks a high value that may be exact or a test limit, other limits are often not marked, values filed in µg/mL are converted to µM
Experiment [1] has as its system Listeria monocytogenes NCTC 7973.
Experiment [2] relates to Salmonella enterica subsp. enterica serovar Salford IMVS 1710.
Experiment [3] concerns Staphylococcus aureus NCTC 6571.
The subject of experiment [4] is Staphylococcus epidermidis.
In experiment [5] the test system is Escherichia coli ATCC 25922.
Experiment [6] deals with Escherichia coli ATCC 35218.
Experiment [7] has as its system Klebsiella pneumoniae ATCC 700603.
The subject of experiment [8] is Klebsiella pneumoniae NDM-1.
The test system of experiment [9] is Pseudomonas aeruginosa ATCC 27853.
The test system of experiment [10] is Pseudomonas aeruginosa PAO1.
Experiment [11] deals with Candida albicans NCYC 1467.
The test system of experiment [12] is Enterococcus faecalis NCTC 12697.
For experiment [13], the system named is Escherichia coli NCTC 10418.
For experiment [14], the system named is Klebsiella pneumoniae ATCC 43816.
Experiment [15] has as its system Staphylococcus aureus ATCC 12493.
For experiment [16], the system named is Staphylococcus aureus NCTC 10788.
The test system of experiment [17] is Bacillus amyloliquefaciens ATCC 23842.
Experiment [18] deals with Bacillus cereus ATCC 14579.
The test system of experiment [19] is Bacillus licheniformis ATCC 14580.
Experiment [20] has as its system Bacillus subtilis ATCC 6051.
The test system of experiment [21] is Enterococcus faecalis 1F-1.
The subject of experiment [22] is Enterococcus faecium 4W-9.
The test system of experiment [23] is Enterococcus faecium 5F-10.
The subject of experiment [24] is Proteus mirabilis ATCC 35659.
The test system of experiment [25] is Salmonella enterica ATCC H9812.
Experiment [26] relates to Staphylococcus aureus 215.
The subject of experiment [27] is Staphylococcus aureus ATCC 29213.

≈ marks a conversion by molar mass, not a printed value.

For the compound `CC[C@H](C)[C@H](NC(=O)[C@H](CO)NC(=O)[C@@H]1CCCN1C(=O)[C@H](C)NC(=O)CNC(=O)[C@H](CC(C)C)NC(=O)[C@H](CCCCN)NC(=O)[C@@H](N)CCCCN)C(=O)N[C@H](C(=O)N[C@@H](CS)C(=O)N[C@H](C(=O)N[C@@H](CCCN=C(N)N)C(=O)N[C@@H](CCCN=C(N)N)C(=O)N[C@@H](C)C(=O)N[C@@H](Cc1ccccc1)C(=O)N[C@@H](C)C(=O)O)C(C)C)[C@@H](C)O` [KKLGAPSITCVRRAFA], the minimal inhibitory concentration (MIC) (commonly the least concentration at which growth counts as inhibited) with Bacillus cereus ACM 446 is no less than 100 µM; against Escherichia coli L361, no less than 50 µM; in the experiment on Escherichia coli O9 it was no less than 60 µM; in experiment [1] it was no less than 40 µM; with Pseudomonas fluorescens, no less than 100 µM; in experiment [2], no less than 100 µM. This compound also yielded an MIC in experiment [3] of no less than 100 µM.

Turning to `CSCC[C@H](NC(=O)[C@H](CCCCN)NC(=O)[C@H](CCC(N)=O)NC(=O)[C@H](CCSC)NC(=O)[C@H](CC(N)=O)NC(=O)[C@H](CCCN=C(N)N)NC(=O)[C@H](CC(N)=O)NC(=O)[C@H](Cc1ccc(O)cc1)NC(=O)[C@H](CCCCN)NC(=O)[C@H](Cc1ccc(O)cc1)NC(=O)[C@H](CC(=O)O)NC(=O)[C@H](CCCCN)NC(=O)[C@H](Cc1c[nH]c2ccccc12)NC(=O)[C@H](C)NC(=O)[C@H](CCC(N)=O)NC(=O)[C@H](CCCN=C(N)N)NC(=O)[C@H](C)NC(=O)CNC(=O)[C@@H](N)CCCCN)C(=O)N[C@@H](CC(N)=O)C(=O)N[C@@H](CCC(N)=O)C(=O)NCC(=O)N[C@@H](Cc1ccc(O)cc1)C(=O)NCC(=O)N[C@@H](CCC(N)=O)C(=O)N[C@@H](CCC(N)=O)C(=O)NCC(=O)NCC(=O)O` [KGARQAWKDYKYNRNMQKMNQGYGQQGG], the MIC was no less than 50 µM with Aeromonas hydrophila; no less than 50 µM against Bacillus cereus; no less than 35.4 µM with Bacillus subtilis; greater than 50 µM in the experiment on Candida albicans; 17.7 µM (≈ 58.5 µg/mL) against Cryptococcus neoformans; greater than 50 µM in the experiment with Escherichia coli. Also, the MIC is greater than 50 µM in the experiment with Pseudomonas aeruginosa; no less than 50 µM in the experiment with Pseudomonas fluorescens; no less than 50 µM against Shigella flexneri; greater than 50 µM against Staphylococcus aureus; no less than 50 µM in experiment [4]; no less than 50 µM against Vibrio alginolyticus. The compound also registered an MIC in the experiment on Vibrio parahaemolyticus of no less than 50 µM.

With `CC[C@H](C)[C@H](NC(=O)[C@@H](NC(=O)[C@@H]1CCCN1C(=O)[C@H](CO)NC(=O)[C@H](CC(C)C)NC(=O)[C@H](CCCCN)NC(=O)[C@H](CCCCN)NC(=O)[C@H](Cc1ccccc1)NC(=O)[C@H](CC(C)C)NC(=O)[C@H](CCCCN)NC(=O)[C@H](CCCCN)NC(=O)[C@H](CC(C)C)NC(=O)[C@H](CCCCN)NC(=O)[C@H](CCCCN)NC(=O)[C@H](CCCN=C(N)N)NC(=O)[C@@H](N)Cc1ccccc1)C(C)C)C(=O)N1CCC[C@H]1C(=O)N[C@@H](CC(C)C)C(=O)N[C@@H](CC(C)C)C(=O)N[C@@H](CCCCN)C(=O)N[C@@H](CC(C)C)C(=O)NCC(N)=O` [FRKKLKKLFKKLSPVIPLLKLG], the minimum inhibitory concentration (MIC) in the experiment with Enterobacter cloacae was 4 µM (≈ 10.4 µg/mL); in experiment [5] it was 2 µM (≈ 5.19 µg/mL); in experiment [6], 2 µM (≈ 5.19 µg/mL); against Escherichia coli UTI89 it was 2 µM (≈ 5.19 µg/mL); in experiment [7], 2 µM (≈ 5.19 µg/mL); in [8] it was 2.83 µM (≈ 7.34 µg/mL). Further, the MIC against Klebsiella pneumoniae came to 2 µM (≈ 5.19 µg/mL); in [9], 2 µM (≈ 5.19 µg/mL); in [10], 2 µM (≈ 5.19 µg/mL); against Vibrio cholerae, 4 µM (≈ 10.4 µg/mL).

Take `CC[C@H](C)[C@H](NC(=O)[C@H](CO)NC(=O)[C@H](CCCCN)NC(=O)[C@H](Cc1c[nH]c2ccccc12)NC(=O)[C@H](CC(C)C)NC(=O)[C@H](C)N)C(=O)N[C@@H](CC(C)C)C(=O)N[C@@H](CCCCN)C(=O)N[C@@H](CC(N)=O)C(=O)N[C@H](C(=O)NCC(=O)N[C@@H](CCCCN)C(=O)N[C@@H](C)C(=O)N[C@@H](C)C(=O)NCC(=O)N[C@@H](CCCCN)C(=O)N[C@@H](C)C(=O)N[C@H](C(=O)N[C@@H](CC(C)C)C(=O)N[C@@H](CC(N)=O)C(=O)N[C@@H](C)C(=O)N[C@H](C(=O)N[C@H](C(=O)N[C@@H](CC(=O)O)C(=O)N[C@@H](CCSC)C(=O)N[C@H](C(=O)N[C@@H](CC(N)=O)C(=O)N[C@@H](CCC(N)=O)C(N)=O)C(C)C)[C@@H](C)O)C(C)C)C(C)C)C(C)C` [ALWKSILKNVGKAAGKAVLNAVTDMVNQ]: the MIC in experiment [11] was 2 µM (≈ 5.88 µg/mL); in [12], no less than 32 µM; in experiment [13] it was 4 µM (≈ 11.8 µg/mL); in experiment [14], 8 µM (≈ 23.5 µg/mL); in experiment [9] it was 4 µM (≈ 11.8 µg/mL); in experiment [15], 2 µM (≈ 5.88 µg/mL). Moreover, the MIC was found to be 2 µM (≈ 5.88 µg/mL) in [16] and 4 µM (≈ 11.8 µg/mL) against Staphylococcus aureus.

Consider `CC(C)C[C@H](NC(=O)[C@H](CC(C)C)NC(=O)[C@@H](N)CCC(=O)O)C(=O)N[C@@H](CO)C(=O)N[C@@H](C)C(=O)N[C@H](C(=O)N[C@@H](CC(=O)O)C(=O)O)C(C)C` [ELLSAVD], for which the MIC (in experiment [17]; in experiment [18]; in experiment [19]; in experiment [20]; in experiment [21]; with Enterococcus faecalis A4) was no less than 172 µM in each case. The MIC in [22] is no less than 172 µM; in experiment [23], no less than 172 µM; in [5], 85.8 µM (≈ 64 µg/mL); in [24] it was no less than 172 µM; in experiment [10] it was greater than 172 µM; in [25] it was no less than 172 µM. Besides, the MIC in experiment [26] was no less than 172 µM; in experiment [27], greater than 172 µM; with Staphylococcus aureus MR, no less than 172 µM.
